In paper PMC7562955 (Nature Communications, 2020):

Biological target: T1, TLR7 (Homo sapiens, UniProt Q9NYK1)
T1 sequence (Q9NYK1 27-1049): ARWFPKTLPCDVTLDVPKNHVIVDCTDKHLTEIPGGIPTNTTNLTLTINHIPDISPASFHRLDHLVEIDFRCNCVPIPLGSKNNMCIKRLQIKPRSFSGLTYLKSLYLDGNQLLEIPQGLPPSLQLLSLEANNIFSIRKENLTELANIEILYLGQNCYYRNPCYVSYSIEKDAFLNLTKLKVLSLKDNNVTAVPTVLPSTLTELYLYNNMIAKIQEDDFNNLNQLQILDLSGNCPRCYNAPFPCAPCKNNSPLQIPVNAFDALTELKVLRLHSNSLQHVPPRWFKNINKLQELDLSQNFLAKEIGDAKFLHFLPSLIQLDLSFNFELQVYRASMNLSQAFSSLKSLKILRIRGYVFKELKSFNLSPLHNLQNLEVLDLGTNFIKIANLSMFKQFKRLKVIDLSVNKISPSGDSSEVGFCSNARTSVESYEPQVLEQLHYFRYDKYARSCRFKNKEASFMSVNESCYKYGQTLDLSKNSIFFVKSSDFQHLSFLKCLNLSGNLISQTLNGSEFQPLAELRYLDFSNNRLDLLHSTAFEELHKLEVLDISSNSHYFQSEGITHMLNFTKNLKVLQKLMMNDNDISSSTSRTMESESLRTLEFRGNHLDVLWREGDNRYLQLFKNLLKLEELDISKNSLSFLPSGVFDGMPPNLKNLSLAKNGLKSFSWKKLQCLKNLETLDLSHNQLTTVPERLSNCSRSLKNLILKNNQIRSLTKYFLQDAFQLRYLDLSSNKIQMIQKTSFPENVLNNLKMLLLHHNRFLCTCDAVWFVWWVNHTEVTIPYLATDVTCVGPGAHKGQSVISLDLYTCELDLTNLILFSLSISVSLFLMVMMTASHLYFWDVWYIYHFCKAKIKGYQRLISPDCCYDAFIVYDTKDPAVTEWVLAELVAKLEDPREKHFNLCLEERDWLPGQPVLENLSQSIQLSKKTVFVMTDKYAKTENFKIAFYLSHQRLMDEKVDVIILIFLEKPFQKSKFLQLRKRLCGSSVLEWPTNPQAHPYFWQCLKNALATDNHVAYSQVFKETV
Test: Dose-response relationship between antagonist and R848, human TLR7 reporter gene assay
Assay type: cell-based
Design: host or cells: HEK293 (TLR7/NF-κB/SEAPorter)
Protocol: Compounds were dissolved in dimethyl sulfoxide. Human TLR7 reporter cell line (Novus Biological) were seeded in 96-well microtiter plate (AGC techno glass) at 5 × 10^4 cells/well in DMEM (GIBCO) with 10% fetal bovine serum (GIBCO), and 10 μg ml^−1 Blastcidin S HCl (GIBCO) and incubated at 37 °C in 5% CO2. The plates were incubated over-night and then addition with various concentrations of compound. After 30 min, R848 (human TLR7/8 ligand) that was diluted with the medium was added, wherein final concentration was adjusted to 0.01, 0.03, 0.1, 0.3, 1, 3, 10, 30, 100, 300 and 1000 μM. The plates were then incubated an additional 20 ± 1 h at 37 °C in 5% CO2, and then the SEAP activity was measured as activation of human TLR7. The SEAP activity was evaluated as follows: pNPP (Invitrogen) was added to the incubated sample (50 μl/well); after 15 min, 4 mol l^−1 sodium hydroxide solution (nacalai tesque) was added thereto (50 μl/well) to quench the reaction; and the absorbance of each sample was measured at 405 nm with microplate reader SpectraMax M4 (Molecular Devices).

## CCOc1nc(C)c2nc(-c3cncc(F)c3)n(Cc3ccc(CN4C[C@@H]5C[C@H]4CN5C)cc3)c2n1 [Cpd-7]
  mode of action against R848: acted as antagonists
Cpd-7 0.001 µM, log10[R848 (µM)] 0
  TLR7 reporter signal: 15.1994
Cpd-7 0.001 µM, log10[R848 (µM)] 0.477121
  TLR7 reporter signal: 53.0748
Cpd-7 0.001 µM, log10[R848 (µM)] 1
  TLR7 reporter signal: 91.3639
Cpd-7 0.001 µM, log10[R848 (µM)] 1.47712
  TLR7 reporter signal: 103.082
Cpd-7 0.001 µM, log10[R848 (µM)] 2
  TLR7 reporter signal: 104.508
Cpd-7 0.001 µM, log10[R848 (µM)] 2.47712
  TLR7 reporter signal: 104.681
Cpd-7 0.001 µM, log10[R848 (µM)] 3
  TLR7 reporter signal: 101.38
Cpd-7 0.001 µM, log10[R848 (µM)] -0.522879
  TLR7 reporter signal: 2.983
Cpd-7 0.001 µM, log10[R848 (µM)] -1
  TLR7 reporter signal: 1.3957
Cpd-7 0.001 µM, log10[R848 (µM)] -1.52288
  TLR7 reporter signal: 1.22
Cpd-7 0.001 µM, log10[R848 (µM)] -2
  TLR7 reporter signal: 0.09581
Cpd-7 0.003 µM, log10[R848 (µM)] 0
  TLR7 reporter signal: 11.9465
Cpd-7 0.003 µM, log10[R848 (µM)] 0.477121
  TLR7 reporter signal: 48.0206
Cpd-7 0.003 µM, log10[R848 (µM)] 1
  TLR7 reporter signal: 90.4952
Cpd-7 0.003 µM, log10[R848 (µM)] 1.47712
  TLR7 reporter signal: 102.689
Cpd-7 0.003 µM, log10[R848 (µM)] 2
  TLR7 reporter signal: 104.173
Cpd-7 0.003 µM, log10[R848 (µM)] 2.47712
  TLR7 reporter signal: 102.967
Cpd-7 0.003 µM, log10[R848 (µM)] 3
  TLR7 reporter signal: 101.934
Cpd-7 0.003 µM, log10[R848 (µM)] -0.522879
  TLR7 reporter signal: 2.073
Cpd-7 0.003 µM, log10[R848 (µM)] -1
  TLR7 reporter signal: 1.332
Cpd-7 0.003 µM, log10[R848 (µM)] -1.52288
  TLR7 reporter signal: 1.335
Cpd-7 0.003 µM, log10[R848 (µM)] -2
  TLR7 reporter signal: -0.4152
Cpd-7 0.01 µM, log10[R848 (µM)] 3
  TLR7 reporter signal: 101.214
Cpd-7 0.1 µM, log10[R848 (µM)] 0
  TLR7 reporter signal: 3.483
Cpd-7 0.1 µM, log10[R848 (µM)] 0.477121
  TLR7 reporter signal: 8.9858
Cpd-7 0.1 µM, log10[R848 (µM)] 1
  TLR7 reporter signal: 46.2209
Cpd-7 0.1 µM, log10[R848 (µM)] 1.47712
  TLR7 reporter signal: 89.5722
Cpd-7 0.1 µM, log10[R848 (µM)] 2
  TLR7 reporter signal: 103.066
Cpd-7 0.1 µM, log10[R848 (µM)] 2.47712
  TLR7 reporter signal: 105.195
Cpd-7 0.1 µM, log10[R848 (µM)] 3
  TLR7 reporter signal: 99.2702
Cpd-7 0.1 µM, log10[R848 (µM)] -0.522879
  TLR7 reporter signal: 1.691
Cpd-7 0.1 µM, log10[R848 (µM)] -1
  TLR7 reporter signal: 1.377
Cpd-7 0.1 µM, log10[R848 (µM)] -1.52288
  TLR7 reporter signal: 1.495
Cpd-7 0.1 µM, log10[R848 (µM)] -2
  TLR7 reporter signal: -0.1134
Cpd-7 0.3 µM, log10[R848 (µM)] 0
  TLR7 reporter signal: 1.803
Cpd-7 0.3 µM, log10[R848 (µM)] 0.477121
  TLR7 reporter signal: 3.628
Cpd-7 0.3 µM, log10[R848 (µM)] 1
  TLR7 reporter signal: 15.5922
Cpd-7 0.3 µM, log10[R848 (µM)] 1.47712
  TLR7 reporter signal: 56.9825
Cpd-7 0.3 µM, log10[R848 (µM)] 2
  TLR7 reporter signal: 94.1266
Cpd-7 0.3 µM, log10[R848 (µM)] 2.47712
  TLR7 reporter signal: 104.981
Cpd-7 0.3 µM, log10[R848 (µM)] 3
  TLR7 reporter signal: 99.9984
Cpd-7 0.3 µM, log10[R848 (µM)] -0.522879
  TLR7 reporter signal: 2.988
Cpd-7 0.3 µM, log10[R848 (µM)] -1
  TLR7 reporter signal: 1.0827
Cpd-7 0.3 µM, log10[R848 (µM)] -1.52288
  TLR7 reporter signal: 0.3928
Cpd-7 0.3 µM, log10[R848 (µM)] -2
  TLR7 reporter signal: -0.2667
Cpd-7 1 µM, log10[R848 (µM)] 0
  TLR7 reporter signal: 1.865
Cpd-7 1 µM, log10[R848 (µM)] 0.477121
  TLR7 reporter signal: 1.87
Cpd-7 1 µM, log10[R848 (µM)] 1
  TLR7 reporter signal: 3.318
Cpd-7 1 µM, log10[R848 (µM)] 1.47712
  TLR7 reporter signal: 15.4645
Cpd-7 1 µM, log10[R848 (µM)] 2
  TLR7 reporter signal: 58.664
Cpd-7 1 µM, log10[R848 (µM)] 2.47712
  TLR7 reporter signal: 94.6679
Cpd-7 1 µM, log10[R848 (µM)] 3
  TLR7 reporter signal: 98.5819
Cpd-7 1 µM, log10[R848 (µM)] -0.522879
  TLR7 reporter signal: 2.201
Cpd-7 1 µM, log10[R848 (µM)] -1
  TLR7 reporter signal: 1.343
Cpd-7 1 µM, log10[R848 (µM)] -1.52288
  TLR7 reporter signal: 0.6276
Cpd-7 1 µM, log10[R848 (µM)] -2
  TLR7 reporter signal: -0.3625
Cpd-7 3 µM, log10[R848 (µM)] 0
  TLR7 reporter signal: 1.3957
Cpd-7 3 µM, log10[R848 (µM)] 0.477121
  TLR7 reporter signal: 2.034
Cpd-7 3 µM, log10[R848 (µM)] 1
  TLR7 reporter signal: 1.935
Cpd-7 3 µM, log10[R848 (µM)] 1.47712
  TLR7 reporter signal: 4.379
Cpd-7 3 µM, log10[R848 (µM)] 2
  TLR7 reporter signal: 17.1093
Cpd-7 3 µM, log10[R848 (µM)] 2.47712
  TLR7 reporter signal: 59.4864
Cpd-7 3 µM, log10[R848 (µM)] 3
  TLR7 reporter signal: 88.3569
Cpd-7 3 µM, log10[R848 (µM)] -0.522879
  TLR7 reporter signal: 2.494
Cpd-7 3 µM, log10[R848 (µM)] -1
  TLR7 reporter signal: 1.782
Cpd-7 3 µM, log10[R848 (µM)] -1.52288
  TLR7 reporter signal: 0.9374
Cpd-7 3 µM, log10[R848 (µM)] -2
  TLR7 reporter signal: -0.1469
Cpd-7 10 µM, log10[R848 (µM)] 0
  TLR7 reporter signal: 1.161
Cpd-7 10 µM, log10[R848 (µM)] 0.477121
  TLR7 reporter signal: 1.935
Cpd-7 10 µM, log10[R848 (µM)] 1
  TLR7 reporter signal: 1.487
Cpd-7 10 µM, log10[R848 (µM)] 1.47712
  TLR7 reporter signal: 2.632
Cpd-7 10 µM, log10[R848 (µM)] 2
  TLR7 reporter signal: 3.275
Cpd-7 10 µM, log10[R848 (µM)] 2.47712
  TLR7 reporter signal: 13.6775
Cpd-7 10 µM, log10[R848 (µM)] 3
  TLR7 reporter signal: 50.3984
Cpd-7 10 µM, log10[R848 (µM)] -0.522879
  TLR7 reporter signal: 2.055
Cpd-7 10 µM, log10[R848 (µM)] -1
  TLR7 reporter signal: 1.301
Cpd-7 10 µM, log10[R848 (µM)] -1.52288
  TLR7 reporter signal: 0.4759
Cpd-7 10 µM, log10[R848 (µM)] -2
  TLR7 reporter signal: -0.6883
Cpd-7 30 µM, log10[R848 (µM)] 0
  TLR7 reporter signal: 1.6017
Cpd-7 30 µM, log10[R848 (µM)] 0.477121
  TLR7 reporter signal: 2.2708
Cpd-7 30 µM, log10[R848 (µM)] 1
  TLR7 reporter signal: 2.316
Cpd-7 30 µM, log10[R848 (µM)] 1.47712
  TLR7 reporter signal: 3.334
Cpd-7 30 µM, log10[R848 (µM)] 2
  TLR7 reporter signal: 2.078
Cpd-7 30 µM, log10[R848 (µM)] 2.47712
  TLR7 reporter signal: 2.285
Cpd-7 30 µM, log10[R848 (µM)] 3
  TLR7 reporter signal: 8.593
Cpd-7 30 µM, log10[R848 (µM)] -0.522879
  TLR7 reporter signal: 2.676
Cpd-7 30 µM, log10[R848 (µM)] -1
  TLR7 reporter signal: 1.493
Cpd-7 30 µM, log10[R848 (µM)] -1.52288
  TLR7 reporter signal: 0.7617
Cpd-7 30 µM, log10[R848 (µM)] -2
  TLR7 reporter signal: -0.5701
Cpd-7 100 µM, log10[R848 (µM)] 0
  TLR7 reporter signal: 1.319
Cpd-7 100 µM, log10[R848 (µM)] 0.477121
  TLR7 reporter signal: 2.528
Cpd-7 100 µM, log10[R848 (µM)] 1
  TLR7 reporter signal: 1.127
Cpd-7 100 µM, log10[R848 (µM)] 1.47712
  TLR7 reporter signal: 2.558
Cpd-7 100 µM, log10[R848 (µM)] 2
  TLR7 reporter signal: 1.63
Cpd-7 100 µM, log10[R848 (µM)] 2.47712
  TLR7 reporter signal: 1.53
Cpd-7 100 µM, log10[R848 (µM)] 3
  TLR7 reporter signal: 0.3114
Cpd-7 100 µM, log10[R848 (µM)] -0.522879
  TLR7 reporter signal: 1.865
Cpd-7 100 µM, log10[R848 (µM)] -1
  TLR7 reporter signal: 1.004
Cpd-7 100 µM, log10[R848 (µM)] -1.52288
  TLR7 reporter signal: 0.5685
Cpd-7 100 µM, log10[R848 (µM)] -2
  TLR7 reporter signal: -0.7138
